Data taken from patent publication EP4692059A1, “CATIONIC LIPID HAVING DISULFIDE BOND” (Tohoku University, priority 2023, dated 2024).

How the values were obtained:
liver [1] = test: In vivo gene expression, luciferase luminescence in the liver after tail vein administration (Experimental Example 4); conditions: BALB/c mouse, mRNA 0.05 mg/kg
Description: LNP encapsulating mRNA that expresses luciferase (cationic lipid:DOPC:Chol:DMG-PEG2k = 52.5:7.5:40:1.5 (molar ratio)) was prepared by the method described in [Experimental Example 2], 1.
(§1) The prepared each mRNA-encapsulating LNP dispersion was administered from the tail vein of BALB/c mouse (male, 5-week-old). The dose of mRNA was set to 0.05 mg per 1 kg body weight of the mouse, and the dose of the mRNA-encapsulating LNP dispersion was set to 10 µL per 1 g body weight of the mouse. After 4.5 hr from the administration of the mRNA-encapsulating LNP dispersion, a PBS solution of D-luciferin potassium was administered into the abdominal cavity of the mouse. The dose of D-luciferin potassium was set to 3 mg per mouse, and the dose of the PBS solution of D-luciferin potassium was set to 200 µL per mouse. After 15 min from the administration of the PBS solution of D-luciferin potassium, the mouse was euthanized, and the liver was isolated. The luminescence in the liver was quantified using an in vivo imaging system (IVIS) with an exposure of 10 sec. The amount of luminescence in the liver was quantified by image analysis using Live Imaging software attached to IVIS. The amount of luminescence (photons/sec) was calculated from the acquired image and used as an index of gene expression activity. The cationic lipids used, the luminescence intensity in the liver, and the relative luminescence intensity (= luminescence intensity in the liver when cationic lipid of Example was used/luminescence intensity in the liver when cationic lipid of Comparative Example was used) are shown in Table 7-1 to Table 7-3. "E+0a" (a: integer) indicated in Table 7-1 to Table 7-3 means "10^a". For example, "3.94E+09" means "3.94×10^9". […]

mouse red blood cells = test: Hemolysis activity (membrane fusion ability) at pH 7.4 and 5.5 (Experimental Example 5); type: cell-based, ICR mice; conditions: physiological pH (7.4); final lipid concentration 100 µM; Fig. 1
Description: LNPs encapsulating mRNA that expresses luciferase (cationic lipid:DOPC:Chol:DMG-PEG2k=52.5:7.5:40:1.5 (molar ratio)) were prepared using the method described in [Experimental Example 2] 1. As cationic lipid, the cationic lipid of Comparative Example, compound 9, compound 14, compound 27, compound 33, or compound 42 was used.
The collected blood was immediately mixed with 1.0 µL of heparin solution (5000 U/5 mL). About 9 mL of PBS was added to the blood to make the total volume 10 mL. The mixture was then mixed by inversion and centrifuged (4°C, 400 g, 10 min). The supernatant containing plasma components was removed using a Pasteur pipette. About 9 mL of PBS was added to the blood cell components to make the total volume 10 mL, and the mixture was centrifuged again. A similar washing procedure was repeated 4 times to obtain mouse red blood cells.
2, 4, 6, 8, and 10 µL of mouse red blood cells were weighed and diluted with PBS containing 1 w/v% Triton-X100. The entire diluted solution was transferred to a clear 96-well plate, and the absorbance at 545 nm was measured using a plate reader. A calibration curve was created using these samples, and the point where the absorbance reached 1 was determined as the amount of blood cells to be used in the hemolysis assay. Empty LNP solution was weighed into an Eppendorf tube and diluted with malic acid-PBS buffer (pH 5.5, pH 7.4), followed by addition of mouse red blood cells. The final lipid concentration was 100 µM at pH 7.4 and 33.3 µM at pH 5.5, and the final volume of the solution was 250 µL. Each tube was shaken at 1900 rpm for 15 min. Each sample was centrifuged under centrifugation conditions (4°C, 400 g, 5 min), and 100 µL of the supernatant was transferred to a clear 96-well plate and the absorbance at 545 nm was measured. Untreated red blood cells were used as the negative control. […] The hemolysis activity of each sample was calculated using the following formula: Hemolysis activity (%) = 100×(absorbance of each sample - absorbance of negative control)/(absorbance of positive control - absorbance of negative control).

liver [2] = test: In vivo gene expression, luciferase luminescence in the liver after tail vein administration (Experimental Example 7); conditions: BALB/c mouse, mRNA 0.05 mg/kg
Description: LNP encapsulating mRNA that expresses luciferase (cationic lipid:DOPC:Chol:DMG-PEG2k = 52.5:7.5:40:1.5 (molar ratio)) was prepared by the method described in [Experimental Example 6], 1.
as §1, with “9.” for “7-1 to Table 7-3. "E+0a" (a: integer) indicated in Table 7-1 to Table 7-3 means "10^a".”

[3] = Measurement of Liposomal pKa (TNS fluorescence, LNP without nucleic acid); conditions: cationic lipid:DOPC:Chol = 52.5:7.5:40 (molar ratio) + DMG-PEG2k about 1.5 mol, pH at which the relative fluorescence intensity was 50%
Description: Lipid nano particles (LNP) without containing nucleic acid were used for the evaluation of Liposomal pKa.
To the obtained mixture was further added DMG-PEG2k (2 mM ethanol solution) in an amount of about 1.5 mol with respect to the total amount 100 mol of cationic lipid, DOPC, and Chol, and then ethanol was added to prepare an ethanol solution of the lipid (total amount: 360 µL).
An acidic malic acid buffer (20 mM, pH 3.0) (1080 µL) containing NaCl at a final concentration of 30 mM and an ethanol solution (360 µL) of lipid were each weighed in a syringe. Using an ultra high-speed nanomedicament producing apparatus NanoAssmblr (manufactured by Precision NanoSystems), LNP was prepared under the conditions of addition rate of acidic buffer solution: 3 mL/min, addition rate of ethanol solution of lipid: 1 mL/min, and syringe holder temperature: 25°C, and collected in a 15 mL tube. […]
20 mM Citrate buffer, sodium phosphate buffer, and tris HCl buffer, each containing NaCl at a final concentration of 150 mM and adjusted to various pHs within the range of pH 3.0 to 10.0, were prepared. […] The relative fluorescence intensity was calculated as a percentage, with the maximum value of the fluorescence intensity in each LNP being 100% and the minimum value being 0%.

[4] = liver luminescence relative to cationic lipid of Comparative Example

Q: Which “amount of luminescence (photons/sec) in liver” value (liver [1]; tail vein, 4.5 hr after administration, LNP cationic lipid:DOPC:Chol:DMG-PEG2k = 52.5:7.5:40:1.5, prepared as in Experimental Example 2) does the source give for `CCCCCCCC/C=C\CCCCCCCC(=O)Oc1ccc(CC(=O)OCCC2CCN(CCSSCCN3CCC(CCOC(=O)Cc4ccc(OC(=O)CCCCCCC/C=C\CCCCCCCC)cc4)CC3)CC2)cc1` [Comparative Example, reference compound] here?
A: 1.52E+09 photons/sec

Q: And the “relative amount of luminescence” value (liver [1]; [4])?
A: 1.00

Q: And the hemolysis activity (mouse red blood cells)?
A: did not exhibit hemolysis activity

Q: And the “amount of luminescence (photons/sec) in liver” value (liver [2]; tail vein, 4.5 hr after administration, LNP cationic lipid:DOPC:Chol:DMG-PEG2k = 52.5:7.5:40:1.5, prepared as in Experimental Example 6)?
A: 2.05E+09 photons/sec

Q: And the “relative amount of luminescence” value (liver [2]; [4])?
A: 1.00

Q: What about the “Liposomal pKa” value [3] of the same compound?
A: 6.50
